The values that follow come from patent US5332811A, “Etopside analogs” (priority 1991, dated 1994).

Where two headings read alike, the source gives them in different places. A value given as a limit tells only on which side of the number the result lay.

One assay concerns KB cells. Put plainly: Cytotoxicity: 50% reduction in cell number of KB cells after three day incubation. The assay is classed as cell-based. The following applies: Homo sapiens, 72 h, KB cells, three day incubation, read-out: Cytotoxicity ID50 KB. How it is done:
(§1) The compounds of the present invention were tested for their degree of inhibitory activity on human type II DNA topoisomerase, their effect on the formation of protein-linked DNA breakage, and their cytotoxicity. The inhibitory activity for compounds of the present invention correlated with the ability of the compounds to cause DNA strand breakage. […] For a description of the assays used with respect to the compounds listed in Tables 1 to 5 see Thurston, L.S., Irie, H., Tani, S., Han, F. S., Liu, Z. C., Cheng, Y.C., and Lee, K. H., Antitumor Agents 78. Inhibition of Human DNA Topoisomerase II by Podophyllotoxin and Peltatin Analogues, J. Med. Chem. 29, 1547 (1986), and the references cited therein, herein incorporated by reference.
in cell number after three day incubation.

Assay [1] concerns the target Human DNA topoisomerase II. The experiment in a line: DNA topoisomerase II assay (P4 unknotting reaction). The assay is classed as biochemical. The following applies: read-out: Inhibition of DNA Topoisomerase II Activity ID50. How it is done: as §1, with “cytotoxicity.” for “cytotoxicity. The inhibitory activity for compounds of the present invention correlated with the ability of the compounds to cause DNA strand breakage.”
Human DNA topoisomerase II was isolated from peripheral blast cells of a patient with acute leukemia. The isolation procedure is described in Thurston, L., Imakura, Y., Haruna, M., Li, Z. C., Liu, S. Y., and Lee, K. H., J. Med. Chem., 31, […] (1988) and is a partial combination of the procedure described in Goto, T., Laiapia, P. and Wang, J., J. Biol. Chem., 259, 10422 (1984) and Halligan, B., Edwards, K., and Liu, L., J. Biol. Chem., 260, 2475 (1985) which are herein specifically incorporated by reference.
Drugs were dissolved in Me2 SO at a concentration of 20 mM as the stock solution and diluted before use with water to the desired concentration of each drug.
The P4 unknotting reaction was a modification of the procedure described by Hseih, T., J. Biol. Chem., 258, 8413 (1985), which is herein specifically incorporated by reference.
The reaction mixture (20 μL), which contained 50 mM HEPES, pH 7.0, 50 mM KCI, 100 mM NaCl, 0.1 mM EDTA, 10 mM MgCl2, 1.0 mM ATP, 50 μg/mL bovine serum albumin, 0.4 μg P4knotted DNA, and enzyme, was incubated with or without drugs.
The reaction mixture was incubated at 37° C. for 30 min and terminated by adding 5.0 μl of a stop solution (2% sodium dodecyl sulfate, 20% glycerol, 0.05% bromophenol blue). These samples were loaded onto a 1% agarose gel and electrophoresed at 55 V overnight with an electrophoresis buffer that contained 90 mM Tris-boric acid, pH 8.3, and 2.5 mM EDTA. At completion, the gel was stained in 0.5 μg/mL of ethidium bromide. Then a photograph was taken of the DNA bands visualized with fluorescence induced by a long-wavelength UV lamp. […]

The mark [2] stands for this setting: Table 3, based on degree of inhibition at 20, 25, 50 and 100 μM.
Setting [3] is: Table 4, based on degree of inhibition at 10, 25, 50 and 100 μM.
[4] abbreviates: Table 2, based on degree of inhibition at 10, 25, 50 and 100 μM.
Setting [5] is: Table 1, based on degree of inhibition at 25, 50, and 100 μM.
The mark [6] stands for this setting: Table 5, based on degree of inhibition at 10, 25, 50 and 100 μM.

`COc1cc([C@@H]2c3cc(O)c(O)cc3[C@@H](Nc3ccc([N+](=O)[O-])cc3)[C@H]3COC(=O)[C@H]23)cc(OC)c1O` [Example 27, 6,7-O-Demethylene-4'-O-demethyl-4β-(4"-nitroanilino)-4-desoxypodophyllotoxin]: the IC50 amounted to 0.76 µM in the assay on KB cells (Table 3) and 20 µM in assay [1] (setting [2]).

For `COc1cc([C@@H]2c3cc4c(cc3[C@@H](NC(=O)c3ccc(F)cc3)[C@H]3COC(=O)[C@H]23)OCO4)cc(OC)c1O` [Example 36, 4'-O-Demethyl-4β-[(4"-fluorobenzoyl)amino]-4-desoxypodophyllotoxin], the IC50 in the assay on KB cells (Table 4) turned out to be 0.34 µM; in assay [1] (setting [3]), 25 µM.

With `COc1cc([C@@H]2c3cc4c(cc3[C@@H](NC(=O)c3ccc(OC(C)=O)cc3)[C@H]3COC(=O)[C@H]23)OCO4)cc(OC)c1O` [Example 37, 4'-O-Demethyl-4β-[(4-acetoxybenoyl)amino]-4-desoxypodophyllotoxin], the IC50 with KB cells (Table 4) turned out to be 0.61 µM; in assay [1] (setting [3]), 25 µM.

Consider `COc1cc(C2c3cc4c(cc3C(Nc3ccc(F)cc3)C3COC(=O)C23)OCO4)cc(O)c1O` (stereo not drawn) [Example 18, 3',4'-O-didemethyl-4β-(4"-floroanilino)-4-desoxypodophyllotoxin], for which the values for the IC50 (in the assay on KB cells (Table 2); in assay [1] (setting [4])) were 3 µM and 10 µM, respectively.

In the case of `COc1cc(C2c3cc4c(cc3C(Nc3cccc(O)c3)C3COC(=O)C23)OCO4)cc(O)c1O` (stereo not drawn) [Example 19, 3',4'-O-Didemethyl-4β-(3"-hydroxyanilino)-4-desoxypodophyllotoxin], the IC50 with KB cells (Table 2) is 1.6 µM; in assay [1] (setting [4]) it was 10 µM.

As for `COc1cc(CNC2c3cc4c(cc3C(c3cc(OC)c(O)c(OC)c3)C3C(=O)OCC23)OCO4)cc(OC)c1` (stereo not drawn) [Example 12, 4'-O-Demethyl-4β-(3",5"-dimethoxybenzylamino)-4-desoxypodophyllotoxin], the IC50 stood at 1.7 µM in the assay with KB cells (Table 1) and 100 µM in assay [1] (setting [5]).

On to `COc1cc(C2c3cc4c(cc3C(NCc3ccccc3N)C3COC(=O)C23)OCO4)cc(OC)c1O` (stereo not shown) [Example 14], for which the IC50 is under 0.4 µM in the assay with KB cells (Table 1) and 25 µM in assay [1] (setting [5]).

On to `COC1=CC([C@@H]2c3cc4c(cc3[C@@H](Nc3ccc(F)cc3)[C@H]3COC(=O)[C@@H]32)OCO4)=CC(=O)C1=O` [Example 43, 3',4'-Didemethoxy-3',4'-dioxo-4β-(4"-fluoroanilino)-4-desoxypodophyllotoxin], for which the IC50 is over 2.1 µM with KB cells (Table 5) and 25 µM in assay [1] (setting [6]).

As for `COc1cc([C@@H]2c3cc4c(cc3[C@@H](NC(=O)c3cccc([N+](=O)[O-])c3)[C@H]3COC(=O)[C@H]23)OCO4)cc(OC)c1O` [Example 41, 4'-O-Demethyl-4β-[(3"-nitrobenzoyl)amino]-4-desoxypodophyllotoxin], the IC50 is 0.33 µM in the assay on KB cells (Table 4) and 10 µM in assay [1] (setting [3]).

With `COc1cc(C2c3cc4c(cc3C(NCc3ccc([N+](=O)[O-])cc3)C3COC(=O)C23)OCO4)cc(OC)c1O` (stereo not drawn) [Example 4, 4'-O-Demethyl-4β-(4"-nitrobenzylamino)-4-desoxypodophyllotoxin], the IC50 in the assay with KB cells (Table 1) was found to be 0.4 µM; in assay [1] (setting [5]), 50 µM.

Take `COc1cc([C@@H]2c3cc4c(cc3[C@@H](NC(=O)c3cccc(C#N)c3)[C@H]3COC(=O)[C@H]23)OCO4)cc(OC)c1O` [Example 39, 4'-O-Demethyl-4β-[(3"-cyanobenzoyl)amino]-4-desoxypodophyllotoxin]: the values for the IC50 (in the assay on KB cells (Table 4); in assay [1] (setting [3])) were 1 µM and 50 µM, respectively.

In the case of `COc1cc(C2c3cc4c(cc3C(Nc3ccc(C#N)cc3)C3COC(=O)C23)OCO4)cc(O)c1O` (stereo not drawn) [Example 22, 3'.4'-O-Didemethyl-4β-(4"-cyanoanilino)-4-desoxypodophyllotoxin], the IC50 was determined as 1.5 µM in the assay on KB cells (Table 2) and 10 µM in assay [1] (setting [4]).

For the compound `COc1cc(C2c3cc4c(cc3C(Nc3ccc5c(c3)OCCO5)C3COC(=O)C23)OCO4)cc(O)c1O` (stereo not shown) [Example 20], the IC50 was determined as 2.3 µM in the assay with KB cells (Table 2) and 10 µM in assay [1] (setting [4]).

Take `COc1cc(C2c3cc4c(cc3C(NCc3cccc(N)c3)C3COC(=O)C23)OCO4)cc(OC)c1O` (stereo not drawn) [Example 13, 4'-O-Demethyl-4β-(3"-aminobenzylamino)-4-desoxypodophyllotoxin]: the results for the IC50 (in the assay with KB cells (Table 1); in assay [1] (setting [5])) were under 0.4 µM and 25 µM, respectively.

For `COc1cc([C@@H]2c3cc(O)c(O)cc3[C@@H](Nc3ccc(C#N)cc3)[C@H]3COC(=O)[C@H]23)cc(OC)c1O` [Example 29, 6,7-O-Demethylene-4'-O-demethyl-4β-(cyanoanilino)-4-deoxypodophyllotoxin], the values for the IC50 (in the assay on KB cells (Table 3); in assay [1] (setting [2])) were 1 µM and 20 µM, respectively.

Regarding `COc1cc([C@@H]2c3cc4c(cc3[C@@H](NC(=O)c3ccc(C#N)cc3)[C@H]3COC(=O)[C@H]23)OCO4)cc(OC)c1O` [Example 40, 4'-O-Demethyl-4β-[(4"-cyanobenzoyl)amino]-4-desoxypodophyllotoxin], the IC50 in the assay with KB cells (Table 4) worked out at 0.1 µM; in assay [1] (setting [3]), 25 µM.

Regarding `CCOC(=O)c1ccc(N[C@@H]2c3cc4c(cc3[C@@H](C3=CC(=O)C(=O)C(OC)=C3)[C@H]3C(=O)OC[C@@H]32)OCO4)cc1` [Example 45, 3',4'-Didemethoxy-3',4'-dioxo-4β-[(4"-ethoxycarbonyl)anilino]-4-desoxypodophyllotoxin], the IC50 in the assay with KB cells (Table 5) is 1.1 µM; in assay [1] (setting [6]), 25 µM.

`COc1cc2c(cc1OC)[C@@H](Nc1ccc(F)cc1)[C@H]1COC(=O)[C@@H]1[C@@H]2c1cc(OC)c(O)c(OC)c1` [Example 31, 6,7-O-demethylene-6,7-O-dimethyl-4'-O-demethyl-4β-(4"-fluoroanilino)-4-desoxypodophyllotoxin]: the values for the IC50 (in the assay on KB cells (Table 3); in assay [1] (setting [2])) were 0.4 µM and 50 µM, respectively.

With `COc1cc([C@@H]2c3cc4c(cc3[C@@H](NC(=O)c3cccc(N)c3)[C@H]3COC(=O)[C@H]23)OCO4)cc(OC)c1O` [Example 42, 4'-O-Demethyl-4β-[(3"-aminobenzoyl)amino]-4-desoxypodophyllotoxin], the IC50 was 0.42 µM with KB cells (Table 4) and 25 µM in assay [1] (setting [3]).

For the compound `COC(=O)c1cccc(N[C@@H]2c3cc4c(cc3[C@@H](c3cc(O)c(O)c(OC)c3)[C@H]3C(=O)OC[C@@H]32)OCO4)c1` [Example 21, 3'.4'-O-Didemethyl-4β-(3"-methoxycarbonylanilino)-4-desoxypodophyllotoxin], the values for the IC50 (in the assay with KB cells (Table 2); in assay [1] (setting [4])) were 1.9 µM and 1 µM, respectively.

Turning to `COc1cc([C@@H]2c3cc4c(cc3[C@@H](NC(=O)c3ccccc3O)[C@H]3COC(=O)[C@H]23)OCO4)cc(OC)c1O` [Example 35, 4'-O-Demethyl-4β-[(2-hydroxylbenzoyl)amino]-4-desoxypodophyllotoxin], the IC50 in the assay with KB cells (Table 4) is under 1 µM; in assay [1] (setting [3]) it was 50 µM.

Take `COc1cc([C@@H]2c3cc(O)c(O)cc3[C@@H](Nc3ccc(F)cc3)[C@H]3COC(=O)[C@H]23)cc(OC)c1O` [Example 30, 6,7-O-Demethylene-4'-O-demethyl-4β-(fluoroanilino)-4-desoxypodophyllotoxin]: the IC50 in the assay with KB cells (Table 3) was over 1 µM; in assay [1] (setting [2]), 25 µM.

For the compound `COc1cc([C@@H]2c3cc4c(cc3[C@@H](NC(=O)c3ccc(C(C)=O)cc3)[C@H]3COC(=O)[C@H]23)OCO4)cc(OC)c1O` [Example 38], the IC50 stood at 1 µM with KB cells (Table 4) and 50 µM in assay [1] (setting [3]).
